The source of these data is US10660335B2, “Plant disease control agent” (SDS BIOTECH K.K., priority 2011, dated 2020).

What all share (assay type): cell-based
One assay deals with Pyricularia oryzae. The conditions noted are these: Concentration 10 ppm; colony diameter vs control, 25° C., second day to seventh day.
The test system of a further assay is Botrytis cinerea. The experiment in a line: In vitro antimicrobial activity, mycelial growth on potato dextrose agar medium. The conditions noted are these: Concentration 10 ppm.
For another assay, the system named is Rhizoctonia solani. The assay is described as above. Conditions: Concentration 10 ppm.

In the case of “iso-C16 bacillomycin D [Comparative compound]”, the “Growth inhibition ratio (%) Pyricularia oryzae” value in the assay on Pyricularia oryzae was found to be 35%. The “Growth inhibition ratio (%) Botrytis cinerea” value in the assay on Botrytis cinerea is given as 39%. The “Growth inhibition ratio (%) Rhizoctonia solani” value in the assay on Rhizoctonia solani is reported as 9%.
